#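 Briefly, cells in 96-well plates were exposed to five compound concentrations for 48 h, and endpoints were estimated by linear interpolation. GI50 is the concentration that inhibits growth by half. TGI marks complete inhibition of growth.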
# Assays:
# Test in all cases: NCI anticancer screen, dose series, 48 h
# 786-0 renal = test system: 786-0 renal
# A498 renal = test system: A498 renal
# A549 NSCLC = test system: A549 NSCLC
# ACHN renal = test system: ACHN renal
# BT-549 breast = test system: BT-549 breast
# CAKI-1 renal = test system: CAKI-1 renal
# CCRF-CEM leukemia = test system: CCRF-CEM leukemia
# DU-145 prostate = test system: DU-145 prostate
# EKVX NSCLC = test system: EKVX NSCLC
# HCC-2998 colon = test system: HCC-2998 colon
# HCT-116 colon = test system: HCT-116 colon
# HL-60(TB) leukemia = test system: HL-60(TB) leukemia
# HOP-92 NSCLC = test system: HOP-92 NSCLC
# HS 578T breast = test system: HS 578T breast
# KM12 colon = test system: KM12 colon
# LOX IMVI melanoma = test system: LOX IMVI melanoma
# M14 melanoma = test system: M14 melanoma
# MALME-3M melanoma = test system: MALME-3M melanoma
# MCF7 breast = test system: MCF7 breast
# MDA-MB-231 breast = test system: MDA-MB-231 breast
# MOLT-4 leukemia = test system: MOLT-4 leukemia
# NCI-H226 lung = test system: NCI-H226 lung
# NCI-H23 lung = test system: NCI-H23 lung
# NCI-H522 lung = test system: NCI-H522 lung
# NCI/ADR-RES ovarian = test system: NCI/ADR-RES ovarian
# OVCAR-3 ovarian = test system: OVCAR-3 ovarian
# OVCAR-4 ovarian = test system: OVCAR-4 ovarian
# OVCAR-5 ovarian = test system: OVCAR-5 ovarian
# OVCAR-8 ovarian = test system: OVCAR-8 ovarian
# PC-3 prostate = test system: PC-3 prostate
# RPMI-8226 leukemia = test system: RPMI-8226 leukemia
# SF-268 CNS = test system: SF-268 CNS
# SF-295 CNS = test system: SF-295 CNS
# SF-539 CNS = test system: SF-539 CNS
# SK-MEL-2 melanoma = test system: SK-MEL-2 melanoma
# SK-MEL-28 melanoma = test system: SK-MEL-28 melanoma
# SK-MEL-5 melanoma = test system: SK-MEL-5 melanoma
# SK-OV-3 ovarian = test system: SK-OV-3 ovarian
# SN12C renal = test system: SN12C renal
# SNB-19 CNS = test system: SNB-19 CNS
# SNB-75 CNS = test system: SNB-75 CNS
# SR leukemia = test system: SR leukemia
# TK-10 renal = test system: TK-10 renal
# U251 CNS = test system: U251 CNS
# UACC-257 melanoma = test system: UACC-257 melanoma
# UACC-62 melanoma = test system: UACC-62 melanoma
# UO-31 renal = test system: UO-31 renal
smiles,measurement,setting,value
Cc1cc2cn3c4ccc(O)cc4nc(N)c3c2cc1C,GI50,786-0 renal,0.0541 µM
same,TGI,786-0 renal,1.7 µM
same,GI50,A498 renal,0.289 µM
same,TGI,A498 renal,22.7 µM
same,GI50,A549 NSCLC,0.132 µM
same,TGI,A549 NSCLC,1.46 µM
same,GI50,ACHN renal,< 0.0307 µM
same,TGI,ACHN renal,1.88 µM
same,GI50,BT-549 breast,2.22 µM
same,TGI,BT-549 breast,20.4 µM
same,GI50,CAKI-1 renal,0.176 µM
same,TGI,CAKI-1 renal,5.13 µM
same,GI50,CCRF-CEM leukemia,0.0163 µM
same,TGI,CCRF-CEM leukemia,2.13 µM
same,GI50,DU-145 prostate,0.0535 µM
same,TGI,DU-145 prostate,1.63 µM
same,GI50,EKVX NSCLC,0.794 µM
same,TGI,EKVX NSCLC,20.3 µM
same,GI50,HCC-2998 colon,0.539 µM
same,TGI,HCC-2998 colon,3.78 µM
same,GI50,HCT-116 colon,< 0.01 µM
same,TGI,HCT-116 colon,1.32 µM
same,GI50,HL-60(TB) leukemia,0.0331 µM
same,TGI,HL-60(TB) leukemia,1.21 µM
same,GI50,HOP-92 NSCLC,4.89 µM
same,TGI,HOP-92 NSCLC,22.3 µM
same,GI50,HS 578T breast,0.17 µM
same,TGI,HS 578T breast,11 µM
same,GI50,KM12 colon,< 0.01 µM
same,TGI,KM12 colon,2.45 µM
same,GI50,LOX IMVI melanoma,< 0.01 µM
same,TGI,LOX IMVI melanoma,1.58 µM
same,GI50,M14 melanoma,< 0.0192 µM
same,TGI,M14 melanoma,1.18 µM
same,GI50,MALME-3M melanoma,2.18 µM
same,TGI,MALME-3M melanoma,26.7 µM
same,GI50,MCF7 breast,0.429 µM
same,TGI,MCF7 breast,1.76 µM
same,GI50,MDA-MB-231 breast,0.35 µM
same,TGI,MDA-MB-231 breast,1.69 µM
same,GI50,MOLT-4 leukemia,0.0828 µM
same,TGI,MOLT-4 leukemia,2.48 µM
same,GI50,NCI-H226 lung,0.502 µM
same,TGI,NCI-H226 lung,19.2 µM
same,GI50,NCI-H23 lung,0.266 µM
same,TGI,NCI-H23 lung,5.09 µM
same,GI50,NCI-H522 lung,0.0175 µM
same,TGI,NCI-H522 lung,0.293 µM
same,GI50,NCI/ADR-RES ovarian,< 0.0204 µM
same,TGI,NCI/ADR-RES ovarian,0.498 µM
same,GI50,OVCAR-3 ovarian,< 0.0176 µM
same,TGI,OVCAR-3 ovarian,1.7 µM
same,GI50,OVCAR-4 ovarian,1.49 µM
same,TGI,OVCAR-4 ovarian,14.4 µM
same,GI50,OVCAR-5 ovarian,1.11 µM
same,TGI,OVCAR-5 ovarian,11.5 µM
same,GI50,OVCAR-8 ovarian,0.18 µM
same,TGI,OVCAR-8 ovarian,1.49 µM
same,GI50,PC-3 prostate,0.127 µM
same,TGI,PC-3 prostate,5.85 µM
same,GI50,RPMI-8226 leukemia,0.0713 µM
same,TGI,RPMI-8226 leukemia,2.01 µM
same,GI50,SF-268 CNS,0.197 µM
same,TGI,SF-268 CNS,5.42 µM
same,GI50,SF-295 CNS,0.15 µM
same,TGI,SF-295 CNS,1.28 µM
same,GI50,SF-539 CNS,0.221 µM
same,TGI,SF-539 CNS,1.05 µM
same,GI50,SK-MEL-2 melanoma,< 0.01 µM
same,TGI,SK-MEL-2 melanoma,1.34 µM
same,GI50,SK-MEL-28 melanoma,0.0961 µM
same,TGI,SK-MEL-28 melanoma,2.1 µM
same,GI50,SK-MEL-5 melanoma,< 0.01 µM
same,TGI,SK-MEL-5 melanoma,0.137 µM
same,GI50,SK-OV-3 ovarian,0.233 µM
same,TGI,SK-OV-3 ovarian,5 µM
same,GI50,SN12C renal,0.172 µM
same,TGI,SN12C renal,1.89 µM
same,GI50,SNB-19 CNS,0.146 µM
same,TGI,SNB-19 CNS,18.6 µM
same,GI50,SNB-75 CNS,0.211 µM
same,TGI,SNB-75 CNS,9.75 µM
same,GI50,SR leukemia,< 0.0284 µM
same,TGI,SR leukemia,1.74 µM
same,GI50,TK-10 renal,0.818 µM
same,TGI,TK-10 renal,2.76 µM
same,GI50,U251 CNS,< 0.01 µM
same,TGI,U251 CNS,1.39 µM
same,GI50,UACC-257 melanoma,1.11 µM
same,TGI,UACC-257 melanoma,3.08 µM
same,GI50,UACC-62 melanoma,< 0.01 µM
same,TGI,UACC-62 melanoma,1.31 µM
same,GI50,UO-31 renal,0.227 µM
same,TGI,UO-31 renal,3.26 µM
